This note sets out measurements from patent publication US8163777B2, “Benzimidazolyl-pyridine compounds for inflammation and immune-related uses” (Synta Pharmaceuticals Corp., priority 2006, dated 2012).

The assay has as its system IL-2, IL-4, IL-5, IL-13, GM-CSF, INF-γ and TNF-α. Kind of assay: Inhibition of multiple cytokines in primary human PBMCs (summary statement). Type of assay: cell-based. To be noted: PHA-stimulated PBMCs. The procedure: Cytokine production was measured using commercially available human ELISA assay kits (from Cell Science, Inc.) following the manufacturers instructions.

Turning to `CCCCc1ccc(C(=O)Nc2ccc(-n3c(C(F)(F)F)nc4cc(OC)ccc43)cc2)cc1` [Compound 66, 4-Butyl-N-[4-(2-trifluoromethyl-5-methoxy-benzoimidazol-1-yl)-phenyl]-benzamide], the “inhibition of IL-2, IL-4, IL-5, IL-13, GM-CSF, INF-γ and TNF-α (in words)” value (“inhibition” for short) was “potent inhibitors”.
Turning to `COc1ccc2c(c1)nc(C(F)(F)F)n2-c1ccc(NC(=O)c2ccc3c(c2)OCO3)cc1` [Compound 75, Benzo[1,3]dioxole-5-carboxylic acid {N-[4-(2-trifluoromethyl-5-methoxy-benzoimidazol-1-yl)-phenyl]} amide], the “inhibition” value was “potent inhibitors”.
On to `CC(C)(C)OC(=O)Nc1ccc(C(=O)Nc2ccc(-n3c(C(F)(F)F)nc4ccccc43)cc2)c(F)c1F` [Compound 31, N-(4-{N-[4-(2-trifluoromethyl-benzoimidazol-1-yl)-phenyl]-carbamoyl}-2,3-difluoro-phenyl)-carbamic acid t-butyl ester], for which the “inhibition” value is “potent inhibitors”.
